# Measurements from patent US20260262643A1, “HERBICIDAL BENZOXAZINES” (FMC CORPORATION, priority 2022, published 2026).
# Where two headings read alike, the source gives them in different places.
# Experiments:
# [1] = tested on: oat, wild; assay: Test A preemergence; assay type: in vivo, Avena fatua; settings: Avena fatua, pre-emergence, 240 h, read-out: Plant response rating, Oat, Wild; for pest or weed control at 125 g/ha: 125 g ai/ha, visual injury after 10 days, 0 to 100 scale, 0 is no effect, 100 is complete control; for pest or weed control at 500 g/ha: 500 g ai/ha, 0 to 100 scale (0 no effect, 100 complete control), 10 days
# In short: (§1)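 Loam/sand soil; pre-em directed soil spray at planting, post-em spray at 1–2 leaf (2–10 cm). Compound in non-phytotoxic solvent + surfactant. Greenhouse 10 d; visual injury vs untreated, 0 = no effect, 100 = complete control.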
# [2] = tested on: corn; assay: Test A postemergence; assay type: in vivo, Zea mays; settings: Zea mays, post-emergence, 240 h; for Corn plant response rating (crop injury, 0 = no effect, 100 = complete kill) at 500 g/ha: 500 g ai/ha
# In short: as §1
# [3] = tested on: sedge, umbrella; assay: Test B flooded paddy test; assay type: in vivo, Cyperus difformis; settings: Cyperus difformis, 312 h; 250 g ai/ha, Flood, 13 days, 0 to 100 scale (0 no effect, 100 complete control); read-out: Plant response rating, Sedge, Umbrella
# In short: (§2)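 Compound is introduced into paddy water covering soil by 3 cm, treating plants that have reached two leaves. Pots are kept flooded at that depth under greenhouse conditions. Assessment at 13 days gives a 0–100 visual control score.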
# [4] = tested on: ryegrass, Italian; assay: Test A preemergence; assay type: in vivo, Lolium multiflorum; settings: Lolium multiflorum, pre-emergence, 240 h, read-out: Plant response rating, Ryegrass, Italian; for pest or weed control at 125 g/ha: 125 g ai/ha, visual injury after 10 days, 0 to 100 scale, 0 is no effect, 100 is complete control; for pest or weed control at 500 g/ha: 500 g ai/ha, 0 to 100 scale (0 no effect, 100 complete control), 10 days
# In short: as §1
# [5] = tested on: oat, wild; assay: Test A postemergence; assay type: in vivo, Avena fatua; settings: Avena fatua, post-emergence, 240 h; for pest or weed control at 125 g/ha: 125 g ai/ha; for pest or weed control at 500 g/ha: 500 g ai/ha
# In short: as §1
# [6] = tested on: barnyardgrass; assay: Test B flooded paddy test; assay type: in vivo, Echinochloa crus-galli; settings: Echinochloa crus-galli, 312 h, 250 g ai/ha, Flood, 13 days, 0 to 100 scale (0 no effect, 100 complete control); read-out: Plant response rating, Barnyardgrass
# In short: as §2
# [7] = tested on: galium; assay: Test A postemergence; assay type: in vivo, Galium aparine; settings: Galium, post-emergence, 240 h; for pest or weed control at 125 g/ha: 125 g ai/ha; for pest or weed control at 500 g/ha: 500 g ai/ha
# In short: as §1
# [8] = tested on: pigweed, palmer; assay: Test A preemergence; assay type: in vivo, Amaranthus palmeri; settings: Amaranthus palmeri, pre-emergence, 240 h, read-out: Plant response rating, Pigweed, Palmer; for pest or weed control at 125 g/ha: 125 g ai/ha, visual injury after 10 days, 0 to 100 scale, 0 is no effect, 100 is complete control; for pest or weed control at 500 g/ha: 500 g ai/ha, 0 to 100 scale (0 no effect, 100 complete control), 10 days
# In short: as §1
# [9] = tested on: ryegrass, Italian; assay: Test A postemergence; assay type: in vivo, Lolium multiflorum; settings: Lolium multiflorum, post-emergence, 240 h; for pest or weed control at 125 g/ha: 125 g ai/ha; for pest or weed control at 500 g/ha: 500 g ai/ha
# In short: as §1
# [10] = tested on: pigweed, palmer; assay: Test A postemergence; assay type: in vivo, Amaranthus palmeri; settings: Amaranthus palmeri, post-emergence, 240 h; for pest or weed control at 125 g/ha: 125 g ai/ha; for pest or weed control at 500 g/ha: 500 g ai/ha
# In short: as §1
# [11] = tested on: horseweed; assay: Test A postemergence; assay type: in vivo, Erigeron canadensis; settings: Erigeron canadensis, post-emergence, 240 h; for pest or weed control at 125 g/ha: 125 g ai/ha; for pest or weed control at 500 g/ha: 500 g ai/ha
# In short: as §1
# [12] = tested on: goosegrass; assay: Test A preemergence; assay type: in vivo, Eleusine indica; settings: Eleusine indica, pre-emergence, 240 h, read-out: Plant response rating, Goosegrass; for pest or weed control at 125 g/ha: 125 g ai/ha, visual injury after 10 days, 0 to 100 scale, 0 is no effect, 100 is complete control; for pest or weed control at 500 g/ha: 500 g ai/ha, 0 to 100 scale (0 no effect, 100 complete control), 10 days
# In short: as §1
# [13] = tested on: soybean; assay: Test A postemergence; assay type: in vivo, Glycine max; settings: Glycine max, post-emergence, 240 h; for plant injury at 125 g/ha: 125 g ai/ha; for plant injury at 500 g/ha: 500 g ai/ha
# In short: as §1
# [14] = tested on: foxtail, giant; assay: Test A preemergence; assay type: in vivo, Setaria faberi; settings: Setaria faberi, pre-emergence, 240 h, read-out: Plant response rating, Foxtail, Giant; for pest or weed control at 125 g/ha: 125 g ai/ha, visual injury after 10 days, 0 to 100 scale, 0 is no effect, 100 is complete control; for pest or weed control at 500 g/ha: 500 g ai/ha, 0 to 100 scale (0 no effect, 100 complete control), 10 days
# In short: as §1
# [15] = postemergence, 10 days, visual injury, 0 to 100 scale (0 no effect, 100 complete control), read-out: Plant response rating, Oat, Wild
# [16] = postemergence, 10 days, visual injury, 0 to 100 scale (0 no effect, 100 complete control), read-out: Plant response rating, Galium
# [17] = postemergence, 10 days, visual injury, 0 to 100 scale (0 no effect, 100 complete control), read-out: Plant response rating, Ryegrass, Italian
# [18] = postemergence, 10 days, visual injury, 0 to 100 scale (0 no effect, 100 complete control), read-out: Plant response rating, Pigweed, Palmer
# [19] = postemergence, 10 days, visual injury, 0 to 100 scale (0 no effect, 100 complete control), read-out: Plant response rating, Horseweed
# [20] = postemergence, 10 days, visual injury, 0 to 100 scale (0 no effect, 100 complete control), read-out: Plant response rating, Soybean
smiles,measurement,setting,value
"C[C@H]1CN(C(=O)c2cccc(-n3cnc(C4CCC4)n3)c2)c2cccc(Cl)c2O1 [Compound 93, [(2S)-8-Chloro-2,3-dihydro-2-methyl-4H-1,4-benzoxazin-4-yl][3-(3-cyclobutyl-1H-1,2,4-triazol-1-yl)phenyl]methanone]",pest or weed control at 125 g/ha,[1],20%
same,pest or weed control at 500 g/ha,[1],90%
same,plant injury at 125 g/ha,"[2]; 125 g ai/ha, postemergence, 10 days, 0 to 100 scale (0 no effect, 100 complete control), read-out: Corn plant response rating",60%
same,"Corn plant response rating (crop injury, 0 = no effect, 100 = complete kill) at 500 g/ha","[2]; postemergence, 10 days, visual injury, 0 to 100 scale (0 no effect, 100 complete control)",90%
same,pest or weed control at 250 g/ha,[3],0%
same,pest or weed control at 125 g/ha,[4],90%
same,pest or weed control at 500 g/ha,[4],100%
same,pest or weed control at 125 g/ha,"[5]; postemergence, 10 days, 0 to 100 scale (0 no effect, 100 complete control), read-out: Oat, Wild plant response rating",20%
same,pest or weed control at 500 g/ha,[5]; [15],70%
same,pest or weed control at 250 g/ha,[6],0%
same,pest or weed control at 125 g/ha,"[7]; postemergence, 10 days, 0 to 100 scale (0 no effect, 100 complete control), read-out: Galium plant response rating",100%
same,pest or weed control at 500 g/ha,[7]; [16],100%
same,pest or weed control at 125 g/ha,[8],90%
same,pest or weed control at 500 g/ha,[8],100%
same,pest or weed control at 125 g/ha,"[9]; postemergence, 10 days, 0 to 100 scale (0 no effect, 100 complete control), read-out: Ryegrass, Italian plant response rating",30%
same,pest or weed control at 500 g/ha,[9]; [17],90%
same,pest or weed control at 125 g/ha,"[10]; postemergence, 10 days, 0 to 100 scale (0 no effect, 100 complete control), read-out: Pigweed, Palmer plant response rating",90%
same,pest or weed control at 500 g/ha,[10]; [18],100%
same,pest or weed control at 125 g/ha,"[11]; postemergence, 10 days, 0 to 100 scale (0 no effect, 100 complete control), read-out: Horseweed plant response rating",0%
same,pest or weed control at 500 g/ha,[11]; [19],40%
same,pest or weed control at 125 g/ha,[12],90%
same,pest or weed control at 500 g/ha,[12],100%
same,plant injury at 125 g/ha,"[13]; postemergence, 10 days, 0 to 100 scale (0 no effect, 100 complete control), read-out: Soybean plant response rating",100%
same,plant injury at 500 g/ha,[13]; [20],100%
same,pest or weed control at 125 g/ha,[14],80%
same,pest or weed control at 500 g/ha,[14],100%
"C#Cc1ncn(-c2cccc(C(=O)N3C[C@H](C)Oc4c(C)cccc43)c2)n1 [Compound 64, [(2S)-2,3-Dihydro-2,8-dimethyl-4H-1,4-benzoxazin-4-yl][3-(3-ethynyl-1H-1,2,4-triazol-1-yl)phenyl]methanone]",pest or weed control at 125 g/ha,[1],30%
same,pest or weed control at 500 g/ha,[1],70%
same,"Corn plant response rating (crop injury, 0 = no effect, 100 = complete kill) at 125 g/ha","[2]; 125 g ai/ha, postemergence, 10 days, visual injury, 0 to 100 scale (0 no effect, 100 complete control)",10%
same,"Corn plant response rating (crop injury, 0 = no effect, 100 = complete kill) at 500 g/ha","[2]; Postemergence, 0 to 100 scale",80%
same,pest or weed control at 250 g/ha,[3],75%
same,pest or weed control at 125 g/ha,[4],90%
same,pest or weed control at 500 g/ha,[4],100%
same,pest or weed control at 125 g/ha,[5]; [15],50%
same,pest or weed control at 500 g/ha,"[5]; Postemergence, 0 to 100 scale, read-out: Plant response rating, Oat, Wild",70%
same,pest or weed control at 250 g/ha,[6],0%
same,pest or weed control at 125 g/ha,[7]; [16],90%
same,pest or weed control at 500 g/ha,"[7]; Postemergence, 0 to 100 scale, read-out: Plant response rating, Galium",100%
same,pest or weed control at 125 g/ha,[8],40%
same,pest or weed control at 500 g/ha,[8],100%
same,pest or weed control at 125 g/ha,[9]; [17],40%
same,pest or weed control at 500 g/ha,"[9]; Postemergence, 0 to 100 scale, read-out: Plant response rating, Ryegrass, Italian",100%
same,pest or weed control at 125 g/ha,[10]; [18],30%
same,pest or weed control at 500 g/ha,"[10]; Postemergence, 0 to 100 scale, read-out: Plant response rating, Pigweed, Palmer",50%
same,pest or weed control at 125 g/ha,[11]; [19],0%
same,pest or weed control at 500 g/ha,"[11]; Postemergence, 0 to 100 scale, read-out: Plant response rating, Horseweed",40%
same,pest or weed control at 125 g/ha,[12],60%
same,pest or weed control at 500 g/ha,[12],100%
same,plant injury at 125 g/ha,[13]; [20],80%
same,plant injury at 500 g/ha,"[13]; Postemergence, 0 to 100 scale, read-out: Plant response rating, Soybean",100%
same,pest or weed control at 125 g/ha,[14],90%
same,pest or weed control at 500 g/ha,[14],100%
